# Results reported in patent publication US5710174A, “Factor XIIIA inhibitor” (Zymo Genetics, Inc., priority 1995, dated 1998).
# How the values were obtained:
# [1] = Solubility in ethanol / DMSO; type: physicochemical
# [2] = system: FVIIa; assay: FVIIa inhibition assay; type: biochemical; settings: up to 100 μM, absorbance at 405 nm
# Experimental: (§1) For the FVIIa, FXa and thrombin inhibition assays described below, an inhibition assay buffer containing 50 mM Tris, 5 mM CaCl2, 150 mM NaCl, 0.1% Tween 20, and 0.1% BSA (albumin, bovine, Sigma fraction V (Sigma)) at about pH 8.0 was used 2. For each of the inhibition assays, the total reaction volume was 100 μl and the assays were performed in 96-well plates.
# For the FVIIa inhibition assay, about 30 μl of inhibition assay buffer, 25 μl of 20 nM recombinant FVIIa (Walt Kiesel, University of New Mexico), and 10 μl of one of a series of dilutions of ZG-1400a were added to plate wells. The ZG-1400a was prepared in 10% DMSO and tested using half-log dilutions, starting at a final assay concentration of 100 μM and diluting to 1 nM. A negative (no inhibition) control contained 30 μl inhibition assay buffer, 25 μl of 20 nM FVIIa, and enough DMSO to give a 1% final DMSO concentration.
# The test and control wells were incubated for about 10 min at room temperature. After incubation, 25 μl of 20 nM tissue factor (Walt Kiesel, University of New Mexico) was added to the wells and incubated for a second 10 min period at room temperature. […]
# (§2) This determination was made by reading absorbance at 405 nm on a ThermoMax microplate reader.
# [3] = system: Factor IX (FIX); assay: Factor IX inhibition assay; type: biochemical; settings: up to 100 μM, absorbance at 405 nm
# Experimental: 60 μl buffer, 10 μl of 40 nM FIX, and 10 μl of one of a series of dilutions of ZG-1400a were added to plate wells. The buffer contained 150 mM NaCl, 5 mM CaCl2, 25 mM Tris, pH 8.0, and 0.1% polyethyleneglycol (PEG). The ZG-1400a was prepared in 10% DMSO and tested using half-log dilutions, starting at a final assay concentration of 100 μM and diluting to 1 nM. A negative (no inhibition) control contained 60 μl buffer, 10 μl of 40 nM FIX, and enough DMSO to give a 1% final DMSO concentration.
# The test and control wells were incubated approximately 10 min at room temperature. After incubation, approximately 10 μl of a mixture containing 200 nM FX (Walt Kiesel, University of New Mexico), 500 pM FVIII (Novo Nordisk) and 10 μM PCPS (phosphatidylcholine:phosphatidylserine (Sigma) in a 1:1 ratio) was added to each well. Then 10 μl of 1 mM S2765 substrate (Kabi) was added to each well.
# In this assay, FIX converts FX to FXa. […] This determination was made by reading absorbance at 405 nm on a ThermoMax microplate reader.
# [4] = system: Factor Xa (FXa); assay: Factor Xa inhibition assay; type: biochemical; settings: up to 100 μM, absorbance at 405 nm
# Experimental: as §1
# (§3) About 30 μl inhibition assay buffer, 50 μl of 10 nM FXa and 10 μl of one of a series of dilutions of ZG-1400a were added to plate wells. The ZG-1400a was prepared in 10% DMSO and tested using half-log dilutions, starting at a final assay concentration of 100 μM and diluting to 1 nM. A negative (no inhibition) control contained 30 μl inhibition assay buffer, 50 μl of 10 nM FXa, and enough DMSO to give a 1% final DMSO concentration.
# The test and control wells were incubated for about 10 min at room temperature. After the incubation period, 10 mM N-α-benzyloxycarbonyl-D-arginine-L-glycyl-L-arginyl-p-nitroanilide-dihydrochloride (S2765 substrate, Kabi) was added to each well.
# as §2
# [5] = system: thrombin; assay: Thrombin inhibition assay; type: biochemical, bovine; settings: up to 100 μM, absorbance at 405 nm
# Experimental: as §1
# as §3, with “2 μg/ml thrombin (bovine, Enzyme Research Labs),” for “10 nM FXa”, “2 μg/ml thrombin,” for “10 nM FXa,”
# The test and control wells were incubated for about 10 min at room temperature. After the incubation period, 20 μl of 1 mM SPECTROZYME TH (H-D-hexahydrotyrosyl-L-alanyl-L-arginine-p-nitroanilide-diacetate salt, American Diagnostica, Inc., New York, N.Y.) was added to each well.
# as §2
SMILES,solubility [1],inhibition of FVIIa activity [2],inhibition of FIX activity [3],inhibition of FXa activity [4],inhibition of thrombin activity [5]
"CC=CCC=CCCC(=O)C1OC1C(N)=O (centres unmarked) [Cerulenin, 2,3-epoxy-4-oxo-7,10-dodecadienamide]","soluble in ethanol, but not DMSO",,,,
"C[C@@H]1CCC/C=C\C(=O)Cc2cc(O)cc(O)c2C(=O)O1 [ZG-1400, R(-) enantiomer of cis-resorcylide]",,not even the highest concentration of ZG-1400a assayed (100 μM) inhibited FVIIa activity,Not even the highest concentration of ZG-1400a assayed (100 μM) inhibited FIX activity,not even the highest concentration of ZG-1400a assayed (100 μM) inhibited FXa activity,not even the highest concentration of ZG-1400a assayed (100 μM) inhibited thrombin activity
